From EP1095657A2, “Compositions for the regulation of cytokine activity” (priority 1992, dated 1994)

Tested on: experimental DTH reaction in mice
Assay: In vivo bioassay of inhibition of experimental DTH reactivity (oxazolone ear swelling)
Design: species or system mice (BALB/c or CD1)
Conditions: CD1 mice, s.c.
Description: Groups of inbred BALB/c (Jackson Laboratories, Bar Harbor, ME) or of outbred CD1 (Weizmann Institute Animal Breeding Center, Rehovot, Israel) mice are sensitized on the shaved abdominal skin with 100 µl of 2% oxazolone (OX) in acetone/olive oil (4/1, v/v) applied topically. DTH sensitivity is elicited 5 days later as follows: mice are challenged with 20 µl of 0.5% OX (10 µl administered topically to each side of the ear) in acetone/olive oil. A constant area of the ear is measured immediately before challenge and 24 and 48 h later with a Mitutoyo engineer's micrometer. The individual measuring ear swelling is blinded to the identity of the groups of mice. The increment (△) of ear swelling is expressed as the mean in units of 10^-2 mm or 10^-4 inch (+SE) depending on the micrometer that is used. Percent inhibition is calculated as follows: %Inhibition= 1-((Treated-negative control)/(positive control-negative control)) [formula]
Mice are treated with LMWH as in Example 5.1, injected the day before primary sensitization to OX. On the fifth day after sensitization to OX, the mice are challenged to induce a DTH reaction, as described above.
The positive control is the DTH reaction elicited in immunized mice in the absence of treatment with LMWH. The negative control is the background swelling produced by the antigen in naive (non-immunized) mice.
BALB/c mice (at least 5 mice per group) were sensitized on the shaved abdomen with 3% 4-ethoxymethylene-2-phenyl oxazolone (OX; BDH Chemicals, GB) in acetone/olive oil applied topically. DTH sensitivity was elicited 5 days later as follows. Mice were challenged with 0.5% OX in acetone/olive oil. The ear was measured immediately before challenge and 24 h later with Mitutoyo engineer's micrometer (Japan). The individual measuring the swelling of the ear was blinded to the identity of the groups of mice. To interfere with DTH response, the low molecular weight immuno-regulatory fractions, diluted in PBS, were administrated subcutaneously into the back of the treated mice at the indicated time schedules and concentrations. Treated mice were inspected during and after (>2 months) the treatment and no major side-effects were observed clinically.
In particular, CD1 mice (available from the Weizmann Institute Animal Breeding Center, Rehovot, Israel), 4-12 mice per group, were treated as described in Section 5.2 or 6.8.

**Q.** With `O=C(O)C1=C[C@H](O)[C@@H](OS(=O)(=O)O)[C@H](O[C@H]2[C@H](O)[C@@H](NS(=O)(=O)O)C(O)O[C@@H]2CO)O1` (stereo partly drawn) [H-9392, 2-O-sulfate-4-deoxy-4-en-iduronic acid-(α-1,4)-2-deoxy-2-N-sulfateglucosamine] as the molecule, how does the Inhmax read?
**A.** 78%

**Q.** And the DTH (at that dose, value in parentheses in the cell taken as positive control, not reported)?
**A.** 4.2 ± 0.7 (17.8 ± 0.9) 10^-2 mm

**Q.** And the dose window (broadest of the compounds tested)?
**A.** 0.000132-0.004 µg/gm

**Q.** What about the “"R" value” (inhibitory, 0 = no effect) of the same molecule?
**A.** 6.5 x 10^4 % x (μg/gm)^-1
